Measurements reported in patent publication US11299485B2, “Thiophene derivative and use thereof” (FUJIMOTO CO., LTD., priority 2018, dated 2022).
Marks after values point to notes of the source that are not given here.

Experiments:
Format in all cases: cell-based
REC-1 cells = assay: Human mantle cell lymphoma cell line REC-1 proliferation suppression test; conditions: Rec1, 72 h, compound 10 μM, 3 days, WST-8, read-out: cell survival rate (% of control) REC-1
Description: Example 53: Human Mantle Cell Lymphoma Cell Line REC-1 Proliferation Suppression Test
REC-1 cells (ATCC, CRL-3004) were suspended in medium B, and diluted as appropriate with 0.4% trypan blue solution (Sigma-Aldrich Co. LLC.). The number of viable cells was counted with a hemocytometer (Funakoshi Co., Ltd.). A cell suspension obtained by diluting with medium B such that the value obtained was 1.3×10^5 cells/mL was dispensed into a Falcon 96 well flat bottom plate (Corning Incorporated) at 75 μL/well, and culture was started at 37° C. under 5% CO2 stream. The next day, a solution obtained by diluting 4 mM DMSO solution of the test compound 100-fold with medium B was added by 25 μL to each well (final concentration of test compound 10 μM). 25 μL of a solution obtained by diluting DMSO 100-fold with medium B was added to the control well. After culturing at 37° C. in a 5% CO2 stream for 3 days, the cell proliferation activity was measured according to the instruction manual attached to WST-8 Kit (KISHIDA CHEMICAL Co., Ltd.).

[1] = system: human peripheral blood mononuclear cells (PBMC); assay: Cytotoxicity test using human peripheral blood mononuclear cells (PBMC); conditions: LPS, 24 hr
Description: Example 56: Cytotoxicity Test Using Human Peripheral Blood Mononuclear Cells (PBMC)
Peripheral blood of a healthy adult was collected in a Venoject II vacuum blood collection tube (Terumo, containing EDTA/2Na), and then diluted two-fold with an equal volume of OTSUKA NORMAL SALINE (Otsuka Pharmaceutical Co., Ltd.). The diluted blood was mixed with Lymphoprep (AXIS-SHIELD) in half the volume of the diluted blood, dispensed into a 15 mL conical tube, and centrifuged at room temperature for 20 min (2,100 rpm). The mononuclear cells accumulated at the interface between Lymphoprep and plasma was transferred to a 50 mL conical tube, diluted with OTSUKA NORMAL SALINE, and the mononuclear cells suspension was centrifuged at room temperature for 10 min (1,150 rpm) and then the supernatant was removed. The mononuclear cells fraction obtained as a precipitate was suspended in an appropriate amount of medium A, and diluted as appropriate with 0.4% trypan blue solution (Sigma-Aldrich Co. LLC.). The number of viable cells was counted with a hemocytometer (ERMA INC.). It was diluted with medium A such that the value obtained was 5×10^5 cells/mL. On the other hand, 37.5 μL of medium A, 2.5 μL of 0.4 mg/mL test compound solution (DMSO solution 10-fold diluted with medium A), and 10 μL of 10 μg/mL lipopolysaccharide (Sigma-Aldrich Co. LLC.) solution (diluted with medium A) were each added in advance to the same well of a Falcon 96-well flat bottom plate (Corning Incorporated), and the above-mentioned cell suspension was dispensed at 50 μL/well (final concentration of test compound 10 μg/mL). 2.5 μL of DMSO diluted 10-fold with medium A was added to the control well instead of the compound solution. After culturing at 37° C. in a 5% CO2 stream for 24 hr, the cell survival rate was measured using WST-1 (DOJINDO LABORATORIES) or WST-8 kit (KISHIDA CHEMICAL Co., Ltd.) and according to each instruction manual attached thereto.

Pfeiffer cells = assay: Human diffuse large B-cell lymphoma cell line Pfeiffer proliferation suppression test; conditions: 144 h, compound 10 μM, 3 days + re-plating with compound 3 days, WST-8, read-out: cell survival rate (% of control) Pfeiffer
Description: Example 52: Human Diffuse Large B-Cell Lymphoma Cell Line Pfeiffer Proliferation Suppression Test
Pfeiffer cells (ATCC, CRL-2632) were suspended in medium B, and diluted as appropriate with 0.4% trypan blue solution (Sigma-Aldrich Co. LLC.). The number of viable cells was counted with a hemocytometer (Funakoshi Co., Ltd.). A cell suspension obtained by diluting with medium B such that the value obtained was 1.3×10^5 cells/mL was dispensed into a Falcon 96 well flat bottom plate (Corning Incorporated) at 75 μL/well, and culture was started at 37° C. under 5% CO2 stream. The next day, a solution obtained by diluting 4 mM DMSO solution of the test compound 100-fold with medium B was added by 25 μL to each well (final concentration of test compound 10 μM). 25 μL of a solution obtained by diluting DMSO 100-fold with medium B was added to the control well. After culturing at 37° C. in a 5% CO2 stream for 3 days, the cell culture medium was uniformly suspended with a multi channel pipette, 14 μL per well was transferred into another new Falcon 96 well flat bottom plate. A solution obtained by diluting 4 mM DMSO solution of the same test compound as the first time 400-fold with medium B was added by 86 μL to a total amount of 100 μL (final concentration of test compound 10 μM). After culturing at 37° C. in a 5% CO2 stream for 3 days, the cell proliferation activity was measured according to the instruction manual attached to WST-8 Kit (KISHIDA CHEMICAL Co., Ltd.).

MM.1S cells = assay: Human myeloma cell line MM.1S proliferation suppression test; conditions: MM1.S, 72 h, compound 10 μM, 3 days, WST-1 or WST-8, read-out: cell survival rate (% of control) MM.1S
Description: Example 51: Human Myeloma Cell Line MM.1S Proliferation Suppression Test
MM.1S cells (ATCC, CRL-2974) were suspended in 10% fetal calf serum (Thermo Fisher Scientific)-containing RPMI1640 medium (ATCC, hereinafter abbreviated as medium B), and diluted as appropriate with 0.4% trypan blue solution (Sigma-Aldrich Co. LLC.). The number of viable cells was counted with a hemocytometer (ERMA INC.). It was diluted with medium B such that the value obtained was 2×10^5 cells/mL. On the other hand, 50 μL of a solution obtained by diluting 4 mM DMSO solution of the test compound 200-fold with medium B was added to each well of a Falcon 96-well flat bottom plate (Corning Incorporated), and the above-mentioned cell suspension was dispensed at 50 μL/well (final concentration of test compound 10 μM). 50 μL of a solution obtained by diluting DMSO 200-fold with medium B was added to the control well. After culturing at 37° C. in a 5% CO2 stream for 3 days, the cell proliferation activity was measured using WST-1 (DOJINDO LABORATORIES) or WST-8 Kit (KISHIDA CHEMICAL Co., Ltd.) and according to each instruction manual attached thereto.

[2] = compound 10 μg/mL, WST-1 or WST-8

Row | SMILES | viability at 10 µM (REC-1 cells) [%] | cell survival rate (% of control) PBMC [1, 2] | viability at 10 µM (Pfeiffer cells) [%] | viability at 10 µM (MM.1S cells) [%] | cell survival rate (% of control) PBMC ([1]; 3 μg/mL due to precipitation of compound in medium)
1 | COc1sccc1-c1cn(C2CCC(=O)NC2=O)nn1 (centres unmarked) [compound 18, 3-[4-(2-methoxythiophen-3-yl)-1H-1,2,3-triazol-1-yl]piperidine-2,6-dione] | 18 | 53 % of control | 70 | 27 | –
2 | COc1cscc1-c1cn(C2CCC(=O)NC2=O)nn1 (centres unmarked) [compound 19, 3-[4-(4-methoxythiophen-3-yl)-1H-1,2,3-triazol-1-yl]piperidine-2,6-dione] | 4 | 99 % of control | 11 | 24 | –
3 | COc1cc(-c2cn(C3CCC(=O)NC3=O)nn2)cs1 (centres unmarked) [compound 20, 3-[4-(5-methoxythiophen-3-yl)-1H-1,2,3-triazol-1-yl]piperidine-2,6-dione] | 22 | 104 % of control | 81 | 35 | –
4 | CCCOc1cscc1-c1cn(C2CCC(=O)NC2=O)nn1 (centres unmarked) [compound 21, 3-[4-(4-propoxythiophen-3-yl)-1H-1,2,3-triazol-1-yl]piperidine-2,6-dione] | 63 | 116 % of control | 106 | 75 | –
5 | COc1c(-c2cn(C3CCC(=O)NC3=O)nn2)csc1Cl (centres unmarked) [compound 22, 3-[4-(5-chloro-4-methoxythiophen-3-yl)-1H-1,2,3-triazol-1-yl]piperidine-2,6-dione] | 65 | 132 % of control | 97 | 73 | –
6 | COc1c(-c2cn(C3CCC(=O)NC3=O)nn2)csc1Br (centres unmarked) [compound 23, 3-[4-(5-bromo-4-methoxythiophen-3-yl)-1H-1,2,3-triazol-1-yl]piperidine-2,6-dione] | 70 | 104 % of control | 97 | 75 | –
7 | CCOc1cc(-c2cn(C3CCC(=O)NC3=O)nn2)cs1 (centres unmarked) [compound 24, 3-[4-(5-ethoxythiophen-3-yl)-1H-1,2,3-triazol-1-yl]piperidine-2,6-dione] | 46 | 91 % of control | 91 | 63 | –
8 | CCCCOc1cscc1-c1cn(C2CCC(=O)NC2=O)nn1 (centres unmarked) [compound 25, 3-[4-(4-butoxythiophen-3-yl)-1H-1,2,3-triazol-1-yl]piperidine-2,6-dione] | 57 | 118 % of control | 84 | 69 | –
9 | CC(C)Oc1cscc1-c1cn(C2CCC(=O)NC2=O)nn1 (centres unmarked) [compound 26, 3-[4-(4-isopropoxythiophen-3-yl)-1H-1,2,3-triazol-1-yl]piperidine-2,6-dione] | 23 | 42 % of control | 82 | 40 | –
10 | O=C1CCC(n2cc(-c3cscc3OC3CCCC3)nn2)C(=O)N1 (centres unmarked) [compound 27, 3-{4-[4-(cyclopentyloxy)thiophen-3-yl]-1H-1,2,3-triazol-1-yl}piperidine-2,6-dione] | 80 | 107 % of control | 98 | 82 | –
11 | O=C1CCC(n2cc(-c3cscc3OCC3CC3)nn2)C(=O)N1 (centres unmarked) [compound 28, 3-{4-[4-(cyclopropylmethoxy)thiophen-3-yl]-1H-1,2,3-triazol-1-yl}piperidine-2,6-dione] | 58 | 89 % of control | 91 | 68 | –
12 | O=C1CCC(n2cc(-c3cscc3OCC3CCCC3)nn2)C(=O)N1 (centres unmarked) [compound 29, 3-{4-[4-(cyclopentylmethoxy)thiophen-3-yl]-1H-1,2,3-triazol-1-yl}piperidine-2,6-dione] | 86 | 104 % of control | 110 | 89 | –
13 | O=C1CCC(n2cc(-c3cscc3OCC3CCCCC3)nn2)C(=O)N1 (centres unmarked) [compound 30, 3-{4-[4-(cyclohexylmethoxy)thiophen-3-yl]-1H-1,2,3-triazol-1-yl}piperidine-2,6-dione] | 49 | 70 % of control | 99 | 59 | –
14 | COc1ccc(COc2cscc2-c2cn(C3CCC(=O)NC3=O)nn2)cc1 (centres unmarked) [compound 31, 3-{4-[4-(4-methoxybenzyloxy)thiophen-3-yl]-1H-1,2,3-triazol-1-yl}piperidine-2,6-dione] | 27 | – | 82 | 27 | 106** % of control
15 | O=C1CCC(n2cc(-c3cscc3OCc3ccccc3)nn2)C(=O)N1 (centres unmarked) [compound 32, 3-{4-[4-(benzyloxy)thiophen-3-yl]-1H-1,2,3-triazol-1-yl}piperidine-2,6-dione] | 15 | 66 % of control | 60 | 27 | –
16 | O=C1CCC(n2cc(-c3cscc3OCc3ccncc3)nn2)C(=O)N1 (centres unmarked) [compound 33, 3-{4-[4-(pyridin-4-ylmethoxy)thiophen-3-yl]-1H-1,2,3-triazol-1-yl}piperidine-2,6-dione] | 27 | 78 % of control | 71 | 49 | –
17 | O=C1CCC(n2cc(-c3cscc3OCc3ccccn3)nn2)C(=O)N1 (centres unmarked) [compound 34, 3-{4-[4-(pyridin-2-ylmethoxy)thiophen-3-yl]-1H-1,2,3-triazol-1-yl}piperidine-2,6-dione] | 33 | 95 % of control | 104 | 50 | –
